Data set [1] is filed under the species Homo sapiens. Description: Selectivity ratio of IC50 for recombinant human CYP2C9 to IC50 for recombinant human CYP1A1.
Data set [2] deals with T1, Cytochrome P450 1A1 (Homo sapiens, UniProt P04798).
T1 sequence (P04798 whole entry): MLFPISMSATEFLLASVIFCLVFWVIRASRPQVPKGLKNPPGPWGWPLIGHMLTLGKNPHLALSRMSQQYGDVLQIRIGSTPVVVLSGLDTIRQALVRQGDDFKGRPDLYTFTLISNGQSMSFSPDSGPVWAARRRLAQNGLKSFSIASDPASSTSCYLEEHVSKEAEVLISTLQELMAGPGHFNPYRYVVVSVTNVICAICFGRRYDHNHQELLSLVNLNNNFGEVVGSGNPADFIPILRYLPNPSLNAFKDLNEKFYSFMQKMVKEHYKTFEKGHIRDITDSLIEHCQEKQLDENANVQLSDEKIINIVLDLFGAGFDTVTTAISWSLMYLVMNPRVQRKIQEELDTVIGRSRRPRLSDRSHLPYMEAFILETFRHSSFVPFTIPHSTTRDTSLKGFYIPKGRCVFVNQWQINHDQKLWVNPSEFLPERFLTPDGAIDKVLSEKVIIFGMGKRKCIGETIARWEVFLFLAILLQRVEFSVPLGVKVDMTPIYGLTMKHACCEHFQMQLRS
Description: Inhibition of human CYP1A1 expressed in yeast cells. In kind it is cell-based.

Data set [3] concerns the target T1, Cytochrome P450 1A1. Description: Time-dependent inhibition of recombinant human CYP1A1 expressed in HEK293 cells using 7-ethoxyresorufin as substrate.
The target of data set [4] is T1, Cytochrome P450 1A1. Kind of data set: Competitive inhibition of human CYP1A1 using 7-ethoxyresorufin as substrate.
The species entered for data set [5] is Homo sapiens. Description: Selectivity ratio of IC50 for human CYP1B1 expressed in yeast microsomal membranes to IC50 for human CYP1A1 expressed in yeast microsomal membranes. In kind it is cell membranes.
Data set [6] has as its target T2, Cytochrome P450 1A2 (Homo sapiens, UniProt P05177).
T2 sequence (P05177 whole entry): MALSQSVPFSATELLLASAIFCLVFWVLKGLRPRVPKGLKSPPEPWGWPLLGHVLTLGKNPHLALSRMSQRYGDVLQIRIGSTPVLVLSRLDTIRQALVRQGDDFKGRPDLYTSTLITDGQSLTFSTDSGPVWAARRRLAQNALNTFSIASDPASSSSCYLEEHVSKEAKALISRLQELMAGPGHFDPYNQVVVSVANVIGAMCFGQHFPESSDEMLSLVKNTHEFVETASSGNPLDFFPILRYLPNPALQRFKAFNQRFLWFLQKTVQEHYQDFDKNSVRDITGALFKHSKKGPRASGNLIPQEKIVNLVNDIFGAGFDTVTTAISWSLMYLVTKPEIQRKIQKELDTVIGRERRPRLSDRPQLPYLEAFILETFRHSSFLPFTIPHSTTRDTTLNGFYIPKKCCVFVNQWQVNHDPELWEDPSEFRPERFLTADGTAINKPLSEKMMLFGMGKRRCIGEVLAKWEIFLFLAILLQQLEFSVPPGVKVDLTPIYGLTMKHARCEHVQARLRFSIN
Description: Inhibition of human CYP1A2 expressed in yeast cells. In kind it is ADME, cell-based.

The target in data set [7] is T2, Cytochrome P450 1A2. Description: Inhibition of human CYP1A2 expressed in yeast microsomal membranes using 3-cyano-7-ethoxycoumarin as substrate measured after 10 mins by fluorescence assay. In kind it is ADME, cell membranes, Microsomal Membrane.
For data set [8], the species on record is Homo sapiens. Description: Selectivity ratio of IC50 for human CYP1A2 expressed in yeast microsomal membranes to IC50 for human CYP1A1 expressed in yeast microsomal membranes. Type of data set: cell membranes.
Data set [9] concerns the target T3, Aryl hydrocarbon receptor (Homo sapiens, UniProt P35869).
T3 sequence (P35869 whole entry): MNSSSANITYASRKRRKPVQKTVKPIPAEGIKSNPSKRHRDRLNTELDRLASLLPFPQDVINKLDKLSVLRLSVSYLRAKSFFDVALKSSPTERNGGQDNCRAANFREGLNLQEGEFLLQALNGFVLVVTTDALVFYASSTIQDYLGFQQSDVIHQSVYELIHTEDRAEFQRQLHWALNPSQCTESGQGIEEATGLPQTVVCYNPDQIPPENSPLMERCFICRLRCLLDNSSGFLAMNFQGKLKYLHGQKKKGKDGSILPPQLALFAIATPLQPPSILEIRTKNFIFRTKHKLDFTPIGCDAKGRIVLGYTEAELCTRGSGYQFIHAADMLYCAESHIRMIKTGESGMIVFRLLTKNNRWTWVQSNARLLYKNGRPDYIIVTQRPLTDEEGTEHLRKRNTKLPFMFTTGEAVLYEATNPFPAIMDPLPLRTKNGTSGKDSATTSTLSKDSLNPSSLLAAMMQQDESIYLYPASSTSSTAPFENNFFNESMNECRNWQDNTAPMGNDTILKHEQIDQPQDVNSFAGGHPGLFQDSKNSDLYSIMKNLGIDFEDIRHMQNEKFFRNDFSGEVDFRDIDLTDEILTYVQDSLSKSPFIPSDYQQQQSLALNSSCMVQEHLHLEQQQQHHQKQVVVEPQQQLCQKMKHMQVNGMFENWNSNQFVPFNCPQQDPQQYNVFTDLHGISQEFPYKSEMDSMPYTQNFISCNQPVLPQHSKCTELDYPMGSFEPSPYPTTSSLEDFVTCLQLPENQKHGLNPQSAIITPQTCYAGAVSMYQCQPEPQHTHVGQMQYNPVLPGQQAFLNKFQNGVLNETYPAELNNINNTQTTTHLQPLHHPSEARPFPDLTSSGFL
Description: Antagonist activity at recombinant human eGFP-fused Ahr expressed in yeast cells co-expressing ARNT assessed as inhibition of benzo(a)pyrene-induced Ahr activation at 1 uM measured after 18 hrs by fluorescence assay. Type of data set: cell-based.

Data set [10] deals with T1, Cytochrome P450 1A1. Description: Inhibition of recombinant human CYP1A1 expressed in HEK293 cells using 7-ethoxyresorufin as substrate pretreated for 30 mins followed by substrate addition measured for 60 mins by fluorescence assay. Type of data set: cell-based.
For another data set, the target named is T4, Cytochrome P450 1B1 (Homo sapiens, UniProt Q16678).
T4 sequence (Q16678 whole entry): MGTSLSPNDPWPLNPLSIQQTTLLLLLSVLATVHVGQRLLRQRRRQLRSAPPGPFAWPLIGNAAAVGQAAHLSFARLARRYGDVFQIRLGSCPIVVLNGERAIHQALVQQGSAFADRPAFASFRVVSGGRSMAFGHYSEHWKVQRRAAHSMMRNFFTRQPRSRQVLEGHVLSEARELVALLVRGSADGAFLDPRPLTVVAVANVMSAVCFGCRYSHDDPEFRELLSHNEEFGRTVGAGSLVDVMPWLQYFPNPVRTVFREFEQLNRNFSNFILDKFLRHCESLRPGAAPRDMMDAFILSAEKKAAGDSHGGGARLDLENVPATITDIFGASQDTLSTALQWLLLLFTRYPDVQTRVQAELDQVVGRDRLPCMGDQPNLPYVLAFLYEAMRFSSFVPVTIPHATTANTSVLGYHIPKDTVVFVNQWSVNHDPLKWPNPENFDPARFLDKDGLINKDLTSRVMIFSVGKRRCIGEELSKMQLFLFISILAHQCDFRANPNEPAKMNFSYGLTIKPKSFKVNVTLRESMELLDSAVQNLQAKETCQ
Kind of data set: Inhibition of human CYP1B1 expressed in yeast cells. In kind it is cell-based.

The species entered for data set [11] is Homo sapiens. Description: Selectivity ratio of IC50 for recombinant human CYP3A4 to IC50 for recombinant human CYP1A1.

Structures are written as SMILES. Where only a bound is given, the exact number is not on record here.

The results in this text go back to ChEMBL document CHEMBL4177690, “(E)-3-(3,4,5-Trimethoxyphenyl)-1-(pyridin-4-yl)prop-2-en-1-one, a heterocyclic chalcone is a potent and selective CYP1A1 inhibitor and cancer chemopreventive agent” (Bioorg Med Chem Lett, 2017).

Broadly, the IC50 is the concentration needed to halve the response being measured. A word on the Ki: it is a dissociation constant, usually derived from enzyme kinetics or from competition with a known ligand. A higher Ki goes with weaker binding. `COc1cc(/C=C/C(=O)c2ccncc2)cc(OC)c1OC`: the Ratio IC50 in the data set filed under Homo sapiens [1] was > 100; in the data set filed under Homo sapiens [5], > 10; in the data set filed under Homo sapiens [8], > 10; in the data set filed under Homo sapiens [11] it was > 100. Besides, the IC50 was 150 nM against Cytochrome P450 1A1 [2]; 1820 nM against Cytochrome P450 1A2 [6]; 1090 nM at Cytochrome P450 1A2 [7]; 58 nM on Cytochrome P450 1A1 [10]; 6120 nM against Cytochrome P450 1B1. In addition, the TDI entry on Cytochrome P450 1A1 [3] is listed as “Not Active”. This molecule showed an inhibition constant (Ki) at Cytochrome P450 1A1 [4] of 280 nM. For the same molecule, the “inhibition (INH)” value in data set [9] was “Active”.
